Measurements as given in publication PMC8621208, “Antiseptic 9-Meric Peptide with Potency against Carbapenem-Resistant Acinetobacter baumannii Infection” (International Journal of Molecular Sciences, 2021).
≈ marks a conversion by molar mass, not a printed value. Read-outs that look alike come from different tables or passages of the source. Where a SMILES comes first, the peptide text is derived from it. Where no end group is shown, it is not given here. [ ]: non-standard residue; d: D form.

Legend:
[1] = test system: sheep red blood cells (sRBC); assay: Hemolytic assay; format: cell-based; conditions: 100 μM
Description: The peptide-induced toxicity was determined by hemolytic against Sheep red blood cells (sRBC). Briefly, Fresh sRBC were washed at least three times with phosphate-buffered saline (PBS) and the debris were removed by centrifugation (1000× g for 5 min, 4 °C). All the peptides including melittin control (0.2–100 μM) and positive control (1% (v/v) triton X-100) were incubated with 4% (v/v) sRBC for 1 h at 37 °C followed by centrifugation at 1000× g for 5 min. The supernatant was measured at 405 nm using a microplate reader.

[2] = test system: CRAB C0; format: cell-based, carbapenem-resistant A. baumannii; conditions: peptide pre-incubated 6 h at 37 °C
Description: (§1) All the peptides at their MICs were pre-incubated with proteolytic enzymes such as trypsin and α-chymotrypsin (10,000:1; peptide: enzyme ratio) for 6 h at 37 °C. Then, 100 μL of peptide-protease cocktail was added to the 100 µL bacterial suspension (E. coli, A. baumannii and CRAB C0, 2 × 10^5 CFU/mL) and further incubated for 16 h at 37 °C. Bacterial suspension without peptide and protease served as negative control. The analysis was repeated at three times using independent experiments, and the degree of bacterial growth was measured at 600 nm using a microplate reader.

[3] = test system: P. aeruginosa; assay: MIC, broth dilution; format: cell-based, Pseudomonas aeruginosa KCCM 11328; conditions: 16 h, MH media, read-out: Minimal Inhibitory Concentration (MIC)
Text: (§2) Escherichia coli KCTC 1682 was obtained from the Korean Collection for Type Cultures (KCTC) (Jeongeup-si, Korea), Acinetobacter baumannii KCCM 40203, Pseudomonas aeruginosa KCCM 11328 from the Korea Culture Center of Microorganisms (KCCM) (Seoul, Korea). Klebsiella pneumoniae NCCP 16054 were obtained from the National Culture Collection for Pathogens (NCCP) (Osong, Korea). Additionally, two carbapenem-resistant E. coli (CREC E1 and E2), 11 carbapenem-resistant A. baumannii (CRAB C0–C10) and two carbapenem-resistant K. pneumoniae (CRKP K1 and K2) were isolated from the patients, who presented symptoms and signs of infection at Korea University Anam Hospital (Seoul, Korea) (IRB registration no. 2020AN0157, 4 March 2021). CRAB C0–C10 have the OXA-23 gene with carbapenem-resistance.
(§3) The minimum inhibitory concentrations (MIC) were determined using broth dilution method. Briefly, all the mentioned bacterial strains were grown overnight at 37 °C by Muller–Hinton (MH) media. […] After 16 h incubation, the bacterial growth was read at 600 nm using a SpectraMAX microplate reader (Molecular Devices, San Jose, CA, USA).

[4] = test system: human kidney (HK)-2 cells; assay: Cytotoxicity, WST-8 assay; format: cell-based; conditions: 24 h; for Toxicity in HK-2 cells: up to 100 μM
Description: (§4) Figure 6 In vitro cytotoxicity of Pro9-3 and their analogues. (A) Dose-response curve represent the hemolytic activity of peptides against sheep red blood cell (sRBC). Concentration-dependent (0–100 μM) toxic effects induced by peptides on (B) RAW 264.7 murine macrophage cells and (C) human kidney (HK)-2 cells for 24 h. Melittin was used as a control. Statistical analysis was performed using two-way analysis of variance (ANOVA) with Dunnett’s comparison test. Values are expressed as mean ± SEM of three independent experiments. * p < 0.05, ** p < 0.01, *** p < 0.001, and ns, non-significant compared with the control.
(§5) RAW 264.7 mouse macrophage cells and Human kidney (HK)-2 cells were obtained from Korean cell line bank (Seoul, Korea) and the cells were maintained in DMEM culture media (Thermo Fischer Scientific Inc., Waltham, MA, USA) supplemented with 10% fetal bovine serum, 1% penicillin/streptomycin at 37 °C in a humidified 5% CO2 incubator. The cytotoxicity of the peptides was analyzed using WST-8 cell proliferation assay (Biomax Co, Ltd., Seoul, Korea), and the experiment was performed according to the kit protocol. Briefly, cells (1 × 10^4) were seeded in 96-well plate and the peptides treatment (0–100 μM) were initiated at 80% confluency and then for 24 h. After incubation, WST-8 reagent was added and the change in absorbance was read at 450 nm against reagent blank, and values are expressed as percent cell survival.

[5] = test system: CRAB C0 outer membrane; assay: Outer membrane permeability, NPN uptake; format: cell-based, carbapenem-resistant A. baumannii
Description: The effect of peptides on the disturbance of CRAB C0 outer membrane was analyzed using 1-N-phenylnaphthylamine (NPN, Sigma-Aldrich, St. Louis, MO, USA) uptake assay, as previously described. Briefly, CRAB C0 cell suspensions were mixed with NPN (1 mM) and the background fluorescence was recorded for subtraction (excitation λ = 350 nm, emission λ = 420 nm) using RF-6000PC fluorescent spectrophotometer (Shimadzu Scientific Instruments, Kyoto, Japan). Changes in the NPN fluorescence were recorded after addition of different concentrations of peptides and values are expressed as—fluorescence intensity (A.U.).

[6] = test system: CREC E2; assay: MIC, broth dilution; format: cell-based, carbapenem-resistant E. coli; conditions: read-out: Minimal Inhibitory Concentration (MIC)
Text: as §2, §3

[7] = test system: CREC E1; assay: MIC, broth dilution; format: cell-based, carbapenem-resistant E. coli; conditions: read-out: Minimal Inhibitory Concentration (MIC)
Text: as §2, §3

[8] = test system: CRAB C1; assay: microbe, parasite or virus in culture; conditions: CRAB C1
Text: as §2, §3

[9] = test system: CRAB C8; assay: microbe, parasite or virus in culture; conditions: CRAB C8
Text: as §2, §3

[10] = test system: K. pneumoniae; assay: microbe, parasite or virus in culture; conditions: 16 h
Text: as §2, §3

[11] = test system: A. baumannii; assay: MIC, broth dilution; format: cell-based, Acinetobacter baumannii KCCM 40203; conditions: 16 h, MH media, read-out: Minimal Inhibitory Concentration (MIC)
Text: as §2, §3

[12] = test system: RAW 264.7 murine macrophage cells; assay: Cytotoxicity, WST-8 assay; format: cell-based, mouse; conditions: 24 h
Description: as §4, §5

[13] = test system: E. coli; assay: MIC, broth dilution; format: cell-based, Escherichia coli KCTC 1682; conditions: E. coli; 16 h, MH media; read-out: Minimal Inhibitory Concentration (MIC)
Text: as §2, §3

[14] = test system: CRKP K2; assay: MIC, broth dilution; format: cell-based, carbapenem-resistant K. pneumoniae; conditions: read-out: Minimal Inhibitory Concentration (MIC)
Text: as §2, §3

[15] = test system: CRKP K1; assay: MIC, broth dilution; format: cell-based, carbapenem-resistant K. pneumoniae; conditions: read-out: Minimal Inhibitory Concentration (MIC)
Text: as §2, §3

[16] = test system: CRAB C7; assay: MIC, broth dilution; format: cell-based, carbapenem-resistant A. baumannii; conditions: read-out: Minimal Inhibitory Concentration (MIC)
Text: as §2, §3

[17] = test system: CRAB C4; assay: MIC, broth dilution; format: cell-based, carbapenem-resistant A. baumannii; conditions: read-out: Minimal Inhibitory Concentration (MIC)
Text: as §2, §3

[18] = test system: CRAB C0; assay: MIC, broth dilution; format: cell-based, carbapenem-resistant A. baumannii; conditions: read-out: Minimal Inhibitory Concentration (MIC)
Text: as §2, §3

[19] = test system: CRAB C6; assay: MIC, broth dilution; format: cell-based, carbapenem-resistant A. baumannii; conditions: read-out: Minimal Inhibitory Concentration (MIC)
Text: as §2, §3

[20] = test system: CRAB C10; assay: MIC, broth dilution; format: cell-based, carbapenem-resistant A. baumannii; conditions: read-out: Minimal Inhibitory Concentration (MIC)
Text: as §2, §3

[21] = test system: CRAB C5; assay: MIC, broth dilution; format: cell-based, carbapenem-resistant A. baumannii; conditions: read-out: Minimal Inhibitory Concentration (MIC)
Text: as §2, §3

[22] = test system: CRAB C3; assay: MIC, broth dilution; format: cell-based, carbapenem-resistant A. baumannii; conditions: read-out: Minimal Inhibitory Concentration (MIC)
Text: as §2, §3

[23] = test system: CRAB C9; assay: MIC, broth dilution; format: cell-based, carbapenem-resistant A. baumannii; conditions: read-out: Minimal Inhibitory Concentration (MIC)
Text: as §2, §3

[24] = test system: CRAB C2; assay: MIC, broth dilution; format: cell-based, carbapenem-resistant A. baumannii; conditions: read-out: Minimal Inhibitory Concentration (MIC)
Text: as §2, §3

[25] = test system: E. coli; format: cell-based, Escherichia coli; conditions: peptide pre-incubated 6 h at 37 °C
Description: as §1

[26] = test system: A. baumannii; format: cell-based, Acinetobacter baumannii; conditions: peptide pre-incubated 6 h at 37 °C
Description: as §1

## CC[C@@H](C)[C@@H](NC(=O)[C@@H](C)NC(=O)[C@@H](CC(C)C)NC(=O)[C@@H](Cc1c[nH]c2ccccc12)NC(=O)[C@@H](CC(C)C)NC(=O)[C@H](N)CCCNC(=N)N)C(=O)N[C@H](Cc1c[nH]c2ccccc12)C(=O)N[C@H](CCCNC(=N)N)C(=O)N[C@H](CCCNC(=N)N)C(N)=O [Pro9-3D, rlwlaiwrr-NH2] (H-[dR][dL][dW][dL][dA][dI][dW][dR][dR]-NH2)
[1]
  Hemolytic activity: 1.9%
[2]; CRAB C0 + Trypsin
  Minimal Inhibitory Concentration (MIC): 4 µM
[2]; CRAB C0 + α-Chymotrypsin
  Minimal Inhibitory Concentration (MIC): 4 µM
[3]
  MIC: 8 µM (≈ 10.1 µg/mL)
[4]; 100 μM
  Toxicity in human kidney (HK)-2 cells: 22.9%
[5]
  NPN uptake (outer membrane permeabilization): greater NPN uptake than their L-form peptides
[6]
  MIC: 8 µM (≈ 10.1 µg/mL)
[7]
  MIC: 8 µM (≈ 10.1 µg/mL)
[8]
  Minimal Inhibitory Concentration (MIC): 8 µM
[9]
  Minimal Inhibitory Concentration (MIC): 8 µM
[10]
  Minimal Inhibitory Concentration (MIC): 8 µM
[11]
  MIC: 4 µM (≈ 5.07 µg/mL)
[12]; 100 μM
  Toxicity in RAW 264.7 cells: 44.5%
[13]
  MIC: 8 µM (≈ 10.1 µg/mL)
[14]
  MIC: 8 µM (≈ 10.1 µg/mL)
[15]
  MIC: 16 µM (≈ 20.3 µg/mL)
[16]
  MIC: 8 µM (≈ 10.1 µg/mL)
[17]
  MIC: 8 µM (≈ 10.1 µg/mL)
[18]
  MIC: 4 µM (≈ 5.07 µg/mL)
[19]
  MIC: 8 µM (≈ 10.1 µg/mL)
[20]
  MIC: 8 µM (≈ 10.1 µg/mL)
[21]
  MIC: 8 µM (≈ 10.1 µg/mL)
[22]
  MIC: 8 µM (≈ 10.1 µg/mL)
[23]
  MIC: 8 µM (≈ 10.1 µg/mL)
[24]
  MIC: 8 µM (≈ 10.1 µg/mL)

## RLWLAIWRR-NH2 [Pro9-3]
[1]
  Hemolytic activity: 2.5%
[2]; CRAB C0 + Trypsin
  Minimal Inhibitory Concentration (MIC): >64 µM
[2]; CRAB C0 + α-Chymotrypsin
  Minimal Inhibitory Concentration (MIC): >64 µM
[3]
  MIC: 64 µM
[4]
  Toxicity in HK-2 cells: neither R-Pro9-3 nor Pro9-3 (parent) showed toxicity
[6]
  MIC: 16 µM
[7]
  MIC: 16 µM
[8]
  Minimal Inhibitory Concentration (MIC): 16 µM
[9]
  Minimal Inhibitory Concentration (MIC): 16 µM
[10]
  Minimal Inhibitory Concentration (MIC): 64 µM
[11]
  MIC: 16 µM
[12]; up to 100 μM
  Toxicity in RAW 264.7 cells: neither R-Pro9-3 nor Pro9-3 (parent) showed toxicity
[13]
  MIC: 16 µM
[14]
  MIC: 64 µM
[15]
  MIC: 64 µM
[16]
  MIC: 16 µM
[17]
  MIC: 16 µM
[18]
  MIC: 8 µM
[19]
  MIC: 16 µM
[20]
  MIC: 16 µM
[21]
  MIC: 16 µM
[22]
  MIC: 16 µM
[23]
  MIC: 16 µM
[24]
  MIC: 16 µM

## RRWIALWLR-NH2 [R-Pro9-3]
[1]
  Hemolytic activity: 3.4%
[2]; CRAB C0 + Trypsin
  Minimal Inhibitory Concentration (MIC): 64 µM
[2]; CRAB C0 + α-Chymotrypsin
  Minimal Inhibitory Concentration (MIC): 64 µM
[3]
  MIC: 64 µM
[4]
  Toxicity in HK-2 cells: neither R-Pro9-3 nor Pro9-3 (parent) showed toxicity
[6]
  MIC: 16 µM
[7]
  MIC: 16 µM
[25]; E. coli + Trypsin
  Minimal Inhibitory Concentration (MIC): >64 µM
[25]; E. coli + α-Chymotrypsin
  Minimal Inhibitory Concentration (MIC): 64 µM
[8]
  Minimal Inhibitory Concentration (MIC): 32 µM
[9]
  Minimal Inhibitory Concentration (MIC): 32 µM
[10]; K. pneumoniae, MH media
  Minimal Inhibitory Concentration (MIC): 32 µM
[11]
  MIC: 16 µM
[26]; A. baumannii + Trypsin
  Minimal Inhibitory Concentration (MIC): >64 µM
[26]; A. baumannii + α-Chymotrypsin
  Minimal Inhibitory Concentration (MIC): >64 µM
[12]; up to 100 μM
  Toxicity in RAW 264.7 cells: neither R-Pro9-3 nor Pro9-3 (parent) showed toxicity
[13]
  MIC: 16 µM
[14]
  MIC: 32 µM
[15]
  MIC: 32 µM
[16]
  MIC: 32 µM
[17]
  MIC: 32 µM
[18]
  MIC: 8 µM
[19]
  MIC: 32 µM
[20]
  MIC: 16 µM
[21]
  MIC: 32 µM
[22]
  MIC: 32 µM
[23]
  MIC: 16 µM
[24]
  MIC: 32 µM
